What was measured:
Assay in all cases: relative viability (nuclei count vs DMSO), 5 days (fraction); higher = more cells survive
Quizartinib + AZD7762 = compound: CC(C)(C)c1cc(NC(=O)Nc2ccc(-c3cn4c(n3)sc3cc(OCCN5CCOCC5)ccc34)cc2)no1 [Quizartinib] + NC(=O)Nc1cc(-c2cccc(F)c2)sc1C(=O)N[C@H]1CCCNC1 [AZD7762] (partner 0.2 µM)
Procedure, shortened: (§1)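 Relative viability equals treated-well nuclei counts divided by vehicle-well nuclei counts. Counts came from 4× images of lung cancer cell lines grown in 1536-well plates for 5 days after pin-tool dosing on the day after seeding. Dosing used one drug alone or a fixed anchor-drug dose plus five library-drug doses (not always all listed) in √10 steps, and values are medians of duplicate plates.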

[1] = compound: CC(C)(C)c1cc(NC(=O)Nc2ccc(-c3cn4c(n3)sc3cc(OCCN5CCOCC5)ccc34)cc2)no1 [Quizartinib] + CC(=O)c1c(C)c2cnc(Nc3ccc(N4CCNCC4)cn3)nc2n(C2CCCC2)c1=O [Palbociclib] (partner 0.5 µM)
Procedure, shortened: as §1

Quizartinib + Luminespib = compound: CC(C)(C)c1cc(NC(=O)Nc2ccc(-c3cn4c(n3)sc3cc(OCCN5CCOCC5)ccc34)cc2)no1 [Quizartinib] + CCNC(=O)c1noc(-c2cc(C(C)C)c(O)cc2O)c1-c1ccc(CN2CCOCC2)cc1 [Luminespib] (partner 0.01 µM)
Procedure, shortened: as §1

YM155 + Palbociclib = compound: COCC[n+]1c2c(n(Cc3cnccn3)c1C)C(=O)c1ccccc1C2=O [YM155] + CC(=O)c1c(C)c2cnc(Nc3ccc(N4CCNCC4)cn3)nc2n(C2CCCC2)c1=O [Palbociclib] (partner 0.5 µM)
Procedure, shortened: as §1

Row | Cell Line | relative viability (Quizartinib + AZD7762; first compound 0.001 µM) | relative viability (Quizartinib + AZD7762; first compound 0.003162 µM) | relative viability (Quizartinib + AZD7762; first compound 0.01 µM) | relative viability (Quizartinib + AZD7762; first compound 0.03162 µM) | relative viability (Quizartinib + AZD7762; first compound 0.1 µM) | relative viability ([1]; first compound 0.001 µM) | relative viability ([1]; first compound 0.003162 µM) | relative viability ([1]; first compound 0.01 µM) | relative viability ([1]; first compound 0.03162 µM) | relative viability ([1]; first compound 0.1 µM) | relative viability (Quizartinib + Luminespib; first compound 0.001 µM) | relative viability (Quizartinib + Luminespib; first compound 0.003162 µM) | relative viability (Quizartinib + Luminespib; first compound 0.01 µM) | relative viability (Quizartinib + Luminespib; first compound 0.03162 µM) | relative viability (Quizartinib + Luminespib; first compound 0.1 µM) | relative viability (YM155 + Palbociclib; first compound 0.002 µM) | relative viability (YM155 + Palbociclib; first compound 0.006325 µM) | relative viability (YM155 + Palbociclib; first compound 0.02 µM) | relative viability (YM155 + Palbociclib; first compound 0.06325 µM)
1 | LCLC-103H | 0.664 | 0.701 | 0.746 | 0.866 | 0.829 | 0.38 | 0.506 | 0.482 | 0.513 | 0.558 | 1 | 0.896 | 0.989 | 1.04 | 0.961 | 0.472 | 0.471 | 0.491 | 0.499
2 | LK-2 | 0.456 | 0.405 | 0.474 | 0.244 | 0.293 | 0.734 | 0.621 | 0.853 | 0.599 | 0.69 | 0.162 |  | 0.193 | 0.205 | 0.22 | 0.851 | 0.655 | 0.632 | 0.78
3 | LOU-NH91 | 0.749 | 0.768 | 0.739 | 0.722 | 0.827 | 0.59 | 0.506 | 0.547 | 0.577 | 0.567 | 0.317 | 0.355 | 0.292 | 0.362 | 0.343 | 0.527 | 0.509 | 0.628 | 0.544
4 | LU99A | 0.336 | 0.324 | 0.435 | 0.479 | 0.324 | 0.39 | 0.404 | 0.422 | 0.432 | 0.249 | 0.268 | 0.216 | 0.234 | 0.257 | 0.237 | 0.416 | 0.403 | 0.388 | 0.409
5 | LXF-289 | 0.816 | 1.08 | 1.09 | 1.11 | 1.12 | 0.52 | 0.603 | 0.649 | 0.594 | 0.574 | 0.63 | 0.666 | 0.778 | 0.699 | 0.794 | 0.584 | 0.628 | 0.612 | 0.605
6 | NCI-H23 | 0.302 | 0.173 | 0.277 | 0.195 | 0.25 | 0.425 | 0.543 | 0.548 | 0.453 | 0.396 | 0.209 | 0.245 | 0.219 |  | 0.185 |  | 0.567 | 0.523 | 0.388
7 | NCI-H322M | 0.531 | 0.56 | 0.557 | 0.531 | 0.705 | 0.429 | 0.477 | 0.49 | 0.512 | 0.527 | 0.81 | 0.92 | 0.944 | 0.448 | 0.895 | 0.433 | 0.471 | 0.503 | 0.473
8 | NCI-H358 | 0.578 | 0.448 | 0.555 |  | 0.5 | 0.131 | 0.117 | 0.134 |  | 0.138 | 0.224 | 0.359 | 0.309 | 0.475 | 0.228 | 0.129 | 0.129 | 0.134 | 0.157
9 | NCI-H441 | 0.872 | 1.04 | 1.14 | 0.991 | 1.1 | 0.191 | 0.222 | 0.169 | 0.191 | 0.219 | 0.352 | 0.369 | 0.339 |  | 0.362 | 0.224 | 0.202 | 0.267 | 0.213
10 | NCI-H460 |  | 0.591 | 0.648 | 0.544 | 0.621 |  | 0.136 | 0.188 |  | 0.125 | 0.0338 | 0.0373 | 0.0292 | 0.0246 | 0.0321 | 0.166 | 0.169 | 0.226 | 0.212
11 | NCI-H522 | 0.849 | 0.775 | 0.675 | 0.871 | 0.778 | 0.898 | 0.995 | 1.01 | 1.34 | 0.977 | 1.11 | 1.07 | 0.892 | 1.1 | 1.47 | 1.01 | 1.01 | 1.18 | 1.06
12 | NCI-H647 | 0.39 | 0.651 | 0.422 | 0.325 | 0.566 | 0.371 | 0.348 | 0.413 | 0.403 | 0.511 | 0.174 | 0.155 | 0.213 | 0.327 | 0.189 | 0.348 | 0.424 | 0.423 | 0.238
13 | NCI-H650 | 0.858 | 0.785 | 1.25 | 0.856 | 1.13 | 0.355 | 0.309 | 0.361 | 0.336 | 0.355 | 0.7 | 0.762 | 0.91 | 0.68 | 0.718 | 0.314 | 0.292 | 0.383 | 0.31
14 | NCI-H727 | 0.667 | 0.545 | 0.564 | 0.457 | 0.759 | 0.677 | 0.684 | 0.625 | 0.673 | 0.765 |  | 0.443 | 0.41 | 0.665 | 0.309 | 0.639 | 0.694 | 0.615 | 0.705
15 | NCI-H838 | 0.769 | 0.925 | 1.04 | 0.859 | 0.902 | 0.212 | 0.244 | 0.205 | 0.217 | 0.179 | 0.203 | 0.207 | 0.329 | 0.281 | 0.234 | 0.191 | 0.237 | 0.226 | 0.198
16 | NCI-H1355 | 0.715 | 0.828 | 0.622 | 0.835 | 0.736 | 0.379 | 0.378 | 0.415 | 0.36 | 0.363 | 0.814 | 0.689 | 0.721 | 0.68 | 0.725 | 0.4 | 0.39 | 0.4 | 0.394
17 | NCI-H1395 | 0.477 | 0.395 | 0.46 | 0.367 | 0.367 | 0.549 | 0.573 | 0.668 | 0.591 | 0.598 | 0.68 | 0.52 | 0.841 | 0.71 | 0.69 | 0.565 | 0.613 | 0.598 | 0.627
